Series [1] concerns the target T1, recombinant human pancreatic GLK (Homo sapiens, UniProt P35557).
T1 sequence (P35557 1-465): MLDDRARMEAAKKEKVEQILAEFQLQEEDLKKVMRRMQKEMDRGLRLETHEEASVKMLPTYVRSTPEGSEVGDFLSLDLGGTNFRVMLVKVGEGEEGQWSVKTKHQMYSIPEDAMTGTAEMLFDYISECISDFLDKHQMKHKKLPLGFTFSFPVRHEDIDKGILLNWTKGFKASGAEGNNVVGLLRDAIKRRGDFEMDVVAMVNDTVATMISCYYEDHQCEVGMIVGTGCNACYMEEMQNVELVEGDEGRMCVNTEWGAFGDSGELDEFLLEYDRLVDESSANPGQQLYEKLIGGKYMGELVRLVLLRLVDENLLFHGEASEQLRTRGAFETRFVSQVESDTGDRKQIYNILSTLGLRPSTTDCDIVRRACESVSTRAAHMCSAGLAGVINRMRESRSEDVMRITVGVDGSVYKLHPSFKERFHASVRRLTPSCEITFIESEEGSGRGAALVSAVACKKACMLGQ
Kind of series: biochemical.

The subject of series [2] is Zucker obese fa/fa rats. Nature of the series: Oral Glucose Tolerance Test (OGTT). The series is classed as in vivo, rat. Particulars: 10 mg/kg, given orally 120 minutes before glucose 2 g/kg; Zucker obese fa/fa rats on high fat diet. As for the experimental part:
Oral glucose tolerance tests were done on conscious Zucker obese fa/fa rats (age 12-13 weeks or older) fed a high fat diet (45% kcal fat) for at least two weeks prior to experimentation. The animals were fasted for 2 hours before use for experiments. A test compound or a vehicle was given orally 120 minutes before oral administration of a glucose solution at a dose of 2 g/kg body weight. Blood glucose levels were measured using a Accucheck glucometer from tail bled samples taken at different time points before and after administration of glucose (time course of […]). A time curve of the blood glucose levels was generated and the area-under-the-curve (AUC) for 120 minutes was calculated (the time of glucose administration being time zero). Percent reduction in glucose excursion was determined using the AUC in the vehicle-control group as zero percent reduction.

The source of these data is US7977328B2, “Heteroaryl benzamide derivatives for use as GLK activators in the treatment of diabetes” (AstraZeneca AB, priority 2005, dated 2011).

The melting point is the temperature, or range, at which the solid turns liquid. `Cc1cnc(NC(=O)c2cc(Oc3cnc(C(=O)N4CCC4)cn3)cc(O[C@@H](C)CO)c2)cn1` [Example 59, 3-{[5-(Azetidin-1-ylcarbonyl)pyrazin-2-yl]oxy}-5-{[(1S)-2-hydroxy-1-methylethyl]oxy}-N-(5-methylpyrazin-2-yl)benzamide]: the melting point was 100.6 °C.

In general, EC50 refers to the concentration that produces a half-maximal response. `COC[C@H](C)Oc1cc(Oc2ccc(C(=O)N3CCC3)nc2)cc(C(=O)Nc2ccn(C)n2)c1` [Example 3, 3-{[6-(Azetidin-1-ylcarbonyl)pyridin-3-yl]oxy}-5-{[(1S)-1-methyl-2-(methyloxy)ethyl]oxy}-N-(1-methyl-1H-pyrazol-3-yl)benzamide] came in with a melting point of 132.7 °C. Further, in series [1], the EC50 is 31 nM. Also, the “OGTT activity (percent reduction in glucose excursion, AUC)” value in series [2] was determined as 54%.

The compound `Cc1cnc(NC(=O)c2cc(Oc3ccc(C(=O)N4CCC4)nc3)cc(OC(C)C)c2)cn1` [Example 37, 3-{[6-(Azetidin-1-ylcarbonyl)pyridin-3-yl]oxy}-5-[(1-methylethyl)oxy]-N-(5-methylpyrazin-2-yl)benzamide] displayed a melting point of 125.7 °C.
